pIC50: −log10 of the molar value.

What is called pIC50 is the IC50 on a negative log10 scale, so that one unit is a factor of ten.

The test system of assay [1] is Canine cardiac myofibrillar Ca⁺⁺-dependent Mg⁺⁺ ATPase. The assay can be described thus: Measurement of myofibrillar Ca++-dependent Mg++-ATPase activity. It counts as biochemical. The following applies: Concentration: 3 x 10⁻⁵ molar; for Shift in pCa50 (ΔpCa50): shift of the pCa giving 50% of the maximal control ATPase activity, 21°C, pH 7.0; for Max ATPase activity(%): percent change of ATPase activity for pCa = 5.47. Here is the method:
1. Measurement of myofibrillar Ca++-dependent Mg++-ATPase activity
The effect on Ca++sensitivity and on maximal activity of myofibrillar Ca++-dependent Mg++-ATPase was determined on canine cardiac myofibrils.
(a) Contractile protein preparation
Cardiac myofibrils free of membrane contaminants were prepared from left ventricular tissue of dog hearts using a modification of the method described by SOLARO et al, Biochem. Biophys. Acta, 245, 259-262, (1971). Before centrifugation, the heart homogenate was filtered through gauze.
After Triton X-100 treatments, the myofibrillar fraction was washed once by resuspension and centrifugation in 10 volumes of 1 mM EGTA, […] KCl, 30 mM imidazole, 2 mM MgCl₂, pH 7.0. The pellet was then washed three times in 10 volumes of the same buffer without EGTA. Before the last centrifugation, the suspension of myofibrils was filtered through a stainless steel sieve with 0.25 mm meshes.
Myofibrils were kept in pellet overnight. Before use, the pellet was suspended in a small amount of buffer, the protein concentration was determined by the method of BRADFORD M., Anal. Biochem., 1976, 72, 248 and adjusted in order to have a concentration between 6 and 7mg/ml, using gamma globuline as standard.
(b) Myofibrillar ATPase activity
Ca++-dependent myfibrillar ATPase activity was determined at 21 °C, pH 7.0, by measuring the rate of release of inorganic phosphate. All assays were performed within 24hrs. of final purification, using the method described by SOLARO and RUEGG, CIRC. RES., 51, 290-4,(1982). Reaction mixtures (4ml) containing 0.6 - 0.7 mg/ml myofibrillar protein, 80mM KCl, 20 mM imidazole, 3 mM MgCl₂, 1 mM EGTA, the desired amount of CaCl₂, and the indicated concentration of drug or appropriate vehicle were preincubated for 6 min. prior to assay. The amount of CaCl₂ was varied between 0 and 0.9 mM and the pca (-log free Ca++) computed using 2.514 x 10⁶ M⁻¹ as the apparent affinity of Ca++ for EGTA at pH 7.0.
Reactions were initiated by the addition of Na₂ATP to final concentration of 2 mM. After an incubation period of 12 min., reactions were quenched by the addition of an equal volume of ice-cold 10% trichloroacetic acid. The protein was pelleted by centrifugation (2000g, 15 min.) and Pi was assayed in the supernatant fraction using a modification of the method described by LANZETTA et al, Anal. Biochem., 100, 95-97, (1979).
The following solutions were prepared: • (1) 3.7% ammonium heptamolybdate in 0.12 N H₂SO₄ • (2) 0.074% malachite green oxalate in 1% polyvinylic alcohol.
The colour reagent was prepared by mixing an equal volume of solution (1) and (2) 15 min. before the assay. For the assay, 1700 µl of 1% H₂SO₄ and 1 ml of colour reagent were added to 100 µl of sample. Colour development occurred at room temperature for 30 min. and was quenched by the addition of 200 µl of 1 M tri-potassium citrate. The absorbance was measured at 620 millimicrons.
The effect of each compound, tested at the indicated concentration, on the relation between pCa and percent activation was determined taking 100% for the maximum ATPase activity obtained with vehicle alone. The effect on Ca++ sensitivity was quantified by measuring the shift of the pCa giving 50% of the maximal control ATPase activity.
The effect on maximal ATPase activity was expressed as the percent change of ATPase activity for pCa = 5.47.

Assay [2] deals with T1, CGI-PDE (i.e., c-GMP-inhibited PDE) (Canis lupus familiaris, UniProt A0A8I3NYE0).
T1 construct: isoforms of canine left ventricle were separated by column ion exchange chromatography; from tissue; host or cells: canine left ventricle, Fractogel TSK DEAE 650 fraction IV
T1 sequence (A0A8I3NYE0 1-1135): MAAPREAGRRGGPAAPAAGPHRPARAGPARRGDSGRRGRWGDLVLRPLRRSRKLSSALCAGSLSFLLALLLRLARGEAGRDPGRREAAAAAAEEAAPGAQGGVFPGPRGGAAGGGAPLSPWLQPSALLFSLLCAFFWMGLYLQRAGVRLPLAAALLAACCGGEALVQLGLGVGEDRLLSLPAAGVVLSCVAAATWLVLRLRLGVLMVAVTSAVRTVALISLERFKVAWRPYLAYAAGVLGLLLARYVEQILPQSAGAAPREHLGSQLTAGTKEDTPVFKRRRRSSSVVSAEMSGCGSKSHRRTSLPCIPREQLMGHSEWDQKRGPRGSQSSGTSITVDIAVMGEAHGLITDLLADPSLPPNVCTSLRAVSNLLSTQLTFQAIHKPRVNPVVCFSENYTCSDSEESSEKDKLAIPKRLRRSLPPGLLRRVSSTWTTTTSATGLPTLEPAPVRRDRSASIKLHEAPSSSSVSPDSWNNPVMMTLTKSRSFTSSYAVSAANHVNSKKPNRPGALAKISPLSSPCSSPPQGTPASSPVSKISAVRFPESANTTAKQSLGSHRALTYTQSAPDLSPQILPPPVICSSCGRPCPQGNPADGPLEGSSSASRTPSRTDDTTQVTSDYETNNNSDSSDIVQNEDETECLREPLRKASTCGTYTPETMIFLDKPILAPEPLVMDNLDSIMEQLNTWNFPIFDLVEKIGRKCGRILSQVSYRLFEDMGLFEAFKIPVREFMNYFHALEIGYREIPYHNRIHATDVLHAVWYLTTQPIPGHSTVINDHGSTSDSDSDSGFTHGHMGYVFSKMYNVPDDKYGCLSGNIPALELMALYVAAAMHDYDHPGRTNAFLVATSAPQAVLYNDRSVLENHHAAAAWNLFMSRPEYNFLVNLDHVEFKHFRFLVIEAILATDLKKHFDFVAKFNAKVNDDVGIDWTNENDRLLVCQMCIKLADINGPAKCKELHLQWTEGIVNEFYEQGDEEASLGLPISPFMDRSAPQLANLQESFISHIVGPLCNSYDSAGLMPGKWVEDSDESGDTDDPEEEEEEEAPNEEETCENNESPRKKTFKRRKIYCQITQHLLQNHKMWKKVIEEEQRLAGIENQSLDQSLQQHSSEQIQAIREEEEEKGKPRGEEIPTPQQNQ
In words: Inhibition of cardiac phosphodiesterases, Fraction IV (CGI-PDE). It counts as biochemical. The settings on record: canine left ventricle PDE Fraction IV. The protocol: 2. Inhibition of Cardiac Phosphodiesterases
The phosphodiesterases (PDE) isoforms of canine left ventricle were separated by column ion exchange chromatography, using a minor modification of the method previously described by Alvarez et al. (Mol. Pharmacol., 1986, 29, 554-560). A Fractogel TSK DEAE 650 column was used and the PDEs were eluted using a continuous sodium acetate gradient (50 to 500 mM). The flow rate was 1.2ml/min and fractions of c.a. 8ml were collected as described by Weishaar et al. (Biochem. Pharmacol., 1986, 35, 787-800).
Four isoforms were identified • i) Fraction I or CAM-PDE (i.e. Ca⁺⁺/calmodulin-activated PDE), which hydrolyses both c-AMP and c-GMP, and presents a low Km for c-AMP over a wide range of concentration. It is activated by Ca⁺⁺/calmodulin. • ii) Fraction II or CGS-PDE (i.e. c-GMP-stimulated PDE), which hydrolyses more specifically c-GMP, and presents a high Km, for c-AMP over a wide range of concentration. It is stimulated by c-GMP. • iii) Fraction III or NCGI-PDE (i.e. not c-GMP-inhibited PDE), which hydrolyses more specifically c-AMP and presents two relatively low Km sites of affinity. It is not inhibited by c-GMP. iv) Fraction IV or CGI-PDE (i.e., c-GMP-inhibited PDE), which also hydrolyses more specifically c-AMP, and also presents two relatively low Km site of affinity. It is inhibited by c-GMP.
The inhibitory effect of the test compounds was expressed as the IC₅₀, i.e. the concentration which inhibits the activity by 50%, this value being expressed in micromoles.

Turning to `CC1SC(=O)NN=C1c1ccc2c(c1)C(c1ccccc1)C(=O)N2` (stereo not drawn) [Example 4, 1,3-Dihydro-5-(3,6-dihydro-6-methyl-2-oxo-2H-1,3,4-thiadiazin-5-yl)-3-phenyl-2H-indol-2-one], in assay [1], the “Shift in pCa50 (ΔpCa50)” value came out at 0.68. The pIC50 in assay [2] was 5.49.

With `CC1SC(=O)NN=C1c1ccc2c(c1)C(C)(C)C(=O)N2Cc1ccccc1` (stereo not drawn) [Example 5, 1,3-Dihydro-5-(3,6-dihydro-6-methyl-2-oxo-2H-1,3,4-thiadiazin-5-yl)-3,3-dimethyl-1-(phenylmethyl)-2H-indol-2-one], in assay [1], the “Shift in pCa50 (ΔpCa50)” value was 0.38.

As to “1-Cyclohexylmethyl-5-(3,6-dihydro-6-methyl-2-oxo-2H-1,3,4-thiadiazin-5-yl)-1,3-dihydro-3,3-dimethyl-2H-indol-2-one [Example 9]”, in assay [1], the “Max ATPase activity(%)” value is recorded as “+11%” and the “Shift in pCa50 (ΔpCa50)” value amounted to 0.32.

Take `CC1SC(=O)NN=C1c1ccc2c(c1)C(C)(C)C(=O)N2c1ccccc1` (stereo not drawn) [Example 7, 1,3-Dihydro-5-(3,6-dihydro-6-methyl-2-oxo-2H-1,3,4-thiadiazin-5-yl)-3,3-dimethyl-1-phenyl-2H-indol-2-one]: the “Shift in pCa50 (ΔpCa50)” value in assay [1] is 0.20.

Consider `CC1SC(=O)NN=C1c1ccc2c(c1)C(C1CCCCC1)C(=O)N2` (stereo not drawn) [Example 10, 3-Cyclohexyl-1,3-dihydro-5-(3,6-dihydro-6-methyl-2-oxo-2H-1,3,4-thiadiazin-5-yl)-2H-indol-2-one], for which the “Shift in pCa50 (ΔpCa50)” value in assay [1] was found to be 0.99.

Regarding `CC1SC(=O)NN=C1c1ccc2c(c1)C(C)(C)C(=O)N2C(=O)Nc1ccccc1` (stereo not drawn) [Example 2, 2,3-Dihydro-5-(3,6-dihydro-6-methyl-2-oxo-2H-1,3,4-thiadiazin-5-yl)-3,3-dimethyl-2-oxo-N-phenyl-1H-indole-1-carboxamide], the pIC50 in assay [2] was 4.82.

In the case of `O=C1NN=C(c2ccc3c(c2)C(C2CCCCC2)C(=O)N3)CS1` (stereo not drawn) [Example 12, 3-Cyclohexyl-1,3-dihydro-5-(3,6-dihydro-2-oxo-2H-1,3,4-thiadiazin-5-yl)-2H-indol-2-one], the “Shift in pCa50 (ΔpCa50)” value in assay [1] was 0.49.

As for `O=C1NN=C(c2ccc3c(c2)C(Sc2ccccc2)C(=O)N3)CS1` (stereo not drawn) [Example 11, 1,3-Dihydro-5-(3,6-dihydro-2-oxo-2H-1,3,4-thiadiazin-5-yl)-3-phenylthio-2H-indol-2-one], in assay [1], the “Shift in pCa50 (ΔpCa50)” value is 0.21.

On to `CCOC(=O)CN1C(=O)C(C)(C)c2cc(C3=NNC(=O)SC3C)ccc21` (stereo not drawn) [Example 3, Ethyl 2,3-dihydro-5-(3,6-dihydro-6-methyl-2-oxo-2H-1,3,4-thiadiazin-5-yl)-3,3-dimethyl-2-oxo-N-1H-indole-1-acetate], for which the “Shift in pCa50 (ΔpCa50)” value in assay [1] was 0.23. Moreover, the pIC50 in assay [2] is 5.17.

As to `CC1SC(=O)NN=C1c1ccc2c(c1)C1(CCCC1)C(=O)N2C(=O)c1ccc(N)cc1.Cl` (stereo not drawn) [Example 1, 1′-[(4-Aminophenyl)carbonyl]-5′-(3,6-dihydro-6-methyl-2-oxo-2H-1,3,4-thiadiazin-5-yl)-spiro[cyclopentane-1,3′-[3H]-indol]-2′(1′H)-one, hydrochloride], in assay [1], the “Max ATPase activity(%)” value is reported as -18% and the “Shift in pCa50 (ΔpCa50)” value stood at 0.19. Moreover, in assay [2], the pIC50 was 6.06.
